Laboratory results reported in ChEMBL document CHEMBL2074009, “Possible involvement of P-glycoprotein in biliary excretion of CPT-11 in rats” (Drug Metab Dispos, 1999).

Biological target: Multidrug resistance protein 1a (Rattus norvegicus) (UniProt Q6PSM0)
Assay: TP_TRANSPORTER: uptake (high affinity, inhibited by PSC-833, Verapamil and Cyclosporin A) in bile canalicular membrane vesicles from SD rat
Type: functional, cell membranes
Conditions: Sprague-Dawley, Bile canalicular membrane vesicle

Sequence of Multidrug resistance protein 1a (Rattus norvegicus) (Q6PSM0 as listed by the source): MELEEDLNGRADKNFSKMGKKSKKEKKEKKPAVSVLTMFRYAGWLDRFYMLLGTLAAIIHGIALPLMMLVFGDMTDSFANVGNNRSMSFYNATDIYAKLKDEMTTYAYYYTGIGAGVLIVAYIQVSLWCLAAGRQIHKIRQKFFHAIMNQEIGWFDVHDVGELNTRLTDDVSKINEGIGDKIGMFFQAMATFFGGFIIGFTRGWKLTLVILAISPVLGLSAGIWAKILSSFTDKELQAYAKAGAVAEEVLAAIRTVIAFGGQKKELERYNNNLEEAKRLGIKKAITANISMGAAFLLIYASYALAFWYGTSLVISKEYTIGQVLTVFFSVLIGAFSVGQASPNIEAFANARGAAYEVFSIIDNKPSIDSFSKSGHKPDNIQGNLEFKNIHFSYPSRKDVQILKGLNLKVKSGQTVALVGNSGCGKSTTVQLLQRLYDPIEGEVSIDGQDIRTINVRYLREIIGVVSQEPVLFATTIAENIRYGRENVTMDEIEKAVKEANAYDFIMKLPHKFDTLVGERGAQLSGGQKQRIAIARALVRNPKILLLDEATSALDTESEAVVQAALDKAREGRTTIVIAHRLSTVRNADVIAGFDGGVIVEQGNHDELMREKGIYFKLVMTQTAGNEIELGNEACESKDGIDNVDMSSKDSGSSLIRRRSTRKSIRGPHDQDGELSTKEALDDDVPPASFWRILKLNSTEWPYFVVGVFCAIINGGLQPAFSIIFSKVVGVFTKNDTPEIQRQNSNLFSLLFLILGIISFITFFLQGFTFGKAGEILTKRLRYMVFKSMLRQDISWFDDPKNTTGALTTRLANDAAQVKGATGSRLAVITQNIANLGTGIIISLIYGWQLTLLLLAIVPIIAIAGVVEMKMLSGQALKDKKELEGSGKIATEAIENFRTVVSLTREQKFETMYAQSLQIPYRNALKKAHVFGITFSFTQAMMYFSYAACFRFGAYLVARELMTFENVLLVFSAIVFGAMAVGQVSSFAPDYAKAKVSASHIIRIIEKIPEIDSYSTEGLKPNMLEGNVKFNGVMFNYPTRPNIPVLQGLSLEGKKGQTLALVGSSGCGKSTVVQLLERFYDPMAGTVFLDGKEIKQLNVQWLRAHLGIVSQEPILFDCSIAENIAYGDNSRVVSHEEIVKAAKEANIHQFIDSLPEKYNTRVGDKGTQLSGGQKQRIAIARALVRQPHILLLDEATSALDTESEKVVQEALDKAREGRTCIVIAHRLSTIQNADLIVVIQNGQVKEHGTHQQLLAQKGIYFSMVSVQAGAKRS

## CCc1c2c(nc3ccc(OC(=O)N4CCC(N5CCCCC5)CC4)cc13)-c1cc([C@@](O)(CC)C(=O)O)c(CO)c(=O)n1C2
  Activity: substrate [+]
